Paper PMC3174355 (Journal of medicinal chemistry, 2011)

Target: Rat nNOS (Rattus norvegicus, UniProt P29476)
Assay: NOS inhibition assay, Ki for rat nNOS
Type: biochemical

lower potency for rat nNOS (8b vs 8a) | increase in nNOS potency (8a vs 1b (m-chloro for m-fluoro)) | SMILES
2 fold | – | Cc1cc(N)nc(C[C@@H]2CNC[C@@H]2OCCNCC(F)(F)c2ccccc2Cl)c1 [Compound 8b, 6-(((3R,4R)-4-(2-((2,2-Difluoro-2-(2-chlorophenyl)ethyl)amino)ethoxy)pyrrolidin-3-yl)methyl)-4-methylpyridin-2-amine]
– | 1.3 fold | Cc1cc(N)nc(C[C@@H]2CNC[C@@H]2OCCNCC(F)(F)c2cccc(Cl)c2)c1 [Compound 8a, 6-(((3R,4R)-4-(2-((2,2-Difluoro-2-(3-chlorophenyl)ethyl)amino)ethoxy)pyrrolidin-3-yl)methyl)-4-methylpyridin-2-amine]
